Results on 30 compounds are retold here after patent US8476197B2, “Aminopropenoates as fungicides” (priority 2009, dated 2013).

In general, Log P refers to the decadic logarithm of the partition coefficient of the neutral form, usually between octanol and water. A lower Log P goes with a more hydrophilic compound.

The structures appear in SMILES notation. Marks after values point to notes of the source that are not given here.

The conditions of one series: pH 2.3.
For the compound `CCOC(=O)C(C#N)=C(NC(C)C(C)C)c1cccnc1-c1ccc(C(F)(F)F)cc1` (stereo not shown) [Compound 1457], the “Log P” value came out at 4.23.

Staying with this series, now noted: pH 2.7.
On to `CCCC(C)NC(=C(C#N)C(=O)OCC)c1cn(C)nc1C(F)F` (stereo not shown) [Compound 864], for which the “Log P” value is 3.19^[a]. Still for that read-out and setting: for `CCOC(=O)C(C#N)=C(NC(C)c1ccccn1)c1ncc(C(F)(F)F)cc1Cl` (racemic) [Compound 43] the value was 3.44^[a]. On the same count and under the same terms, for `CCOC(=O)C(C#N)=C(NC(C)c1nccs1)c1ccnn1C(F)F` (stereo not shown) [Compound 1644] the value was 2.51^[a]; for `CCOC(=O)C(C#N)=C(NC(C)C(=O)OCC)c1cccnc1Cl` (stereo not shown) [Compound 1194], 2.82^[a]; for `CCOC(=O)C(C#N)=C(NC(C)C(=O)Nc1ccc2ccccc2c1)c1sccc1C(F)(F)F` (racemic) [Compound 653], 4.01^[a]. `CCOC(=O)C(C#N)=C(NC(C)CC(C)C)c1cc(C)oc1C` (racemic) [Compound 779]: the “Log P” value was 4.35^[a]. For the compound `CCOC(=O)C(C#N)=C(NC(C)c1nc(C)c(C)s1)c1c(C)nn(C)c1Cl` (stereo not shown) [Compound 94], the “Log P” value was 3.12^[a]. As for `CCOC(=O)C(C#N)=C(Nc1ccccc1C(=O)C1CC1)c1cn(C)nc1C(F)F` [Compound 1226], the “Log P” value was 3^[a]. `CCOC(=O)C(C#N)=C(NCc1ccccn1)c1conc1C` [Compound 81]: the “Log P” value is 1.96^[a]. On the same count and under the same terms, the result for `CCOC(=O)C(C#N)=C(Nc1cccc2scnc12)c1cccnc1Cl` [Compound 1553] reads 2.61^[a]; that for `COC(=O)C(C#N)=C(NC(CN1CCOCC1)C1CC1)c1cccnc1Cl` (stereo not shown) [Compound 121], 1.38^[a]. Take `CCOC(=O)C(C#N)=C(NCc1nccs1)c1sc(C)nc1C(F)(F)F` [Compound 141]: the “Log P” value was 2.66^[a]. Consider `COC(=O)C(C#N)=C(NC(C)C1CC1)c1cccnc1Cl` (stereo not shown) [Compound 880], for which the “Log P” value was 2.58^[a]. On to `CCOCC(NC(=C(C#N)C(=O)OCC)c1cccnc1Cl)C(C)C` (stereo not shown) [Compound 1431], for which the “Log P” value is 3.69^[a].

As to `CCOC(=O)C(C#N)=C(NC(C)C(C)OC)c1cn(C)nc1C(Cl)Cl` (stereo not shown) [Compound 1576], the “Log P” value is 2.98^[a]. As for `CCOC(=O)C(C#N)=C(NC(C)C(=O)NC)c1cccnc1C(F)F` (stereo not shown) [Compound 724], the “Log P” value was 1.62^[a]. Take `C=Cc1nn(C)cc1C(NC(C(=O)OC)C(C)C)=C(C#N)C(=O)OCC` (stereo not shown) [Compound 719]: the “Log P” value is 2.94^[a]. Same read-out and setting: the result for `COC(=O)C(C#N)=C(NC1(c2ccccc2Cl)CC1)c1cccnc1Cl` [Compound 382] reads 2.61^[a]; that for `CCOC(=O)C(C#N)=C(NC(C)c1ccccn1)c1sc(C)nc1C(F)(F)F` (racemic) [Compound 146], 3.12^[a]. As for `CCOC(=O)C(C#N)=C(NC(C)c1ccccn1)c1conc1C` (stereo not shown) [Compound 82], the “Log P” value was 2.36^[a]. Consider `CCCCCC(C)NC(=C(C#N)C(=O)OCC)c1sccc1C(F)(F)F` (stereo not shown) [Compound 847], for which the “Log P” value is 5.05^[a]. Take `CCOCC(NC(=C(C#N)C(=O)OC)c1cccnc1Cl)C(C)C` (stereo not shown) [Compound 627]: the “Log P” value was 3.11^[a].

Regarding `CCOC(=O)C(C#N)=C(NC(C)C(C)C)c1cn(C)nc1C(C)(F)F` (racemic) [Compound 1002], the “Log P” value was 3.39^[a].

As to `CCOC(=O)C(C#N)=C(NC(C)C1CC=CCC1)c1cccnc1Cl` (stereo not shown) [Compound 760], the “Log P” value was 3.9^[a]. For the compound `CCOC(=O)C(C#N)=C(NC1CCCC1OC)c1cn(C)nc1C(F)F` (stereo not shown) [Compound 1352], the “Log P” value was 2.78^[a].

Take `CCOC(=O)C(C#N)=C(NC(C)C1(C)CC1)c1cccnc1Cl` (stereo not shown) [Compound 1533]: the “Log P” value was 3.46^[a].

Staying with this series, now noted: pH 7.5.
As to `COCC(C)NC(=C(C#N)C(=O)OC)c1cccnc1Cl` (racemic) [Compound 564], the “Log P” value is recorded as 2.13. For the compound `CCOC(=O)C(C#N)=C(NC(C)C(C)C)c1cccnc1-c1ccc(C(F)(F)F)cc1` (stereo not shown) [Compound 1457], the log partition coefficient (Log P) was 4.25. For `CC(C)OC(=O)C(C#N)=C(NC(C)c1nccs1)c1cccnc1Cl` (stereo not shown) [Compound 23], the “Log P” value is reported as 2.7. Consider `COC(=O)C(C#N)=C(NC(C)CSC)c1cccnc1Cl` (stereo not shown) [Compound 575], for which the “Log P” value worked out at 2.38.
